# Patent publication US20040097555A1, “Concomitant drugs” (priority 2000, published 2004)
# Tests used:
# [1] = biological target: T1, human p38 MAP kinase (Homo sapiens, UniProt Q16539); test: Measurement of the enzyme inhibitory activity of active form p38 MAP kinase (32P uptake into Myelin Basic Protein), Reference Example C1; assay type: biochemical; settings: concentration inhibiting uptake of 32P into acid insoluble fraction (Myelin Basic Protein) by 50%, Table 45
# T1 construct: FLAG (N); made in house; host or cells: Sf-21 insect cells, baculovirus (BAC-HP38 co-infected with BAC-caMKK3)
# T1 sequence (Q16539 whole entry): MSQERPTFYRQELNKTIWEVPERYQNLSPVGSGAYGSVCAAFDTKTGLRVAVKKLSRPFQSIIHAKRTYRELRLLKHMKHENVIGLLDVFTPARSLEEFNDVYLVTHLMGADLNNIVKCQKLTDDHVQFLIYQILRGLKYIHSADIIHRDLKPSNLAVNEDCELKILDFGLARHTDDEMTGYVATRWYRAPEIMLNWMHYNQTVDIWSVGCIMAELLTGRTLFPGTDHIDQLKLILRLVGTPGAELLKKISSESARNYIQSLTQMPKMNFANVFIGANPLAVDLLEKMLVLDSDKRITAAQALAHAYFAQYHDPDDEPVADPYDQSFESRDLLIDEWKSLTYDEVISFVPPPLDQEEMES
# Method: (1) Cloning of Human p38 MAP Kinase Gene and Preparation of Recombinant Baculovirus
# Cloning of human p38 MAP kinase gene was performed by a PCR method using a primer set P38-U: 5′-[…]-3′ [SEQ ID NO:1] and PAG-L: 5′-[…]-3′ [SEQ ID NO:2] made by the use of kidney cDNA (Toyobo, QUICK-Clone cDNA) as a template and referring to the base sequence of p38 MAP kinase gene reported by Han et al. (Science 265 (5173), 808-811 (1994)).
# (2) Cloning of Human MKK3 Gene and Preparation of Recombinant Baculovirus
# (3) Preparation of Active Form p38 MAP Kinase
# The Sf-21 cells were seeded on 100 mL Sf-900II SFM medium (GIBCOBRL) to 1×10^6 cells/mL and cultured at 27° C. for 24 hours. After each 0.2 mL of the virusstock BAC-HP38 and BAC-caMKK3 of recombinant baculovirus were added, the culturing was further performed for 48 hours. After the cells were separated from the culturing solution by centrifugation (3000 rpm, 10 min), the cells were washed twice with PBS. After the cells were suspended in 10 ml Lysis buffer (25 mM HEPES (pH 7.5), 1% Triton X, […], 1 mM EDTA, 1 mM DTT, 25 mM β-glycerophosphate, […], 1 mM APMSF, 1 mM Sodium orthovanadate), the cells were lysed by treating twice in a homogenizer (POLYTRON) at 20000 rpm for 2 minutes. From the supernatant obtained by centrifugation (40000 rpm, 45 minutes), active form p38 MAP kinase was purified using Anti-FLAG M2 Affinity Gel (Eastman Chemical).
# (4) Measurement of the Enzyme Inhibitory Activity
# 2.5 μL of a test compound dissolved in DMSO was added to 37.5 μL reaction solution (25 mM HEPES (pH 7.5), 10 mM Magnesium Acetate) containing 260 ng active form p38 MAP kinase and 1 μg Myelin Basic Protein, which was maintained at 30° C. for 5 minutes. The reaction was initiated by adding […] ATP solution (2.5 μM ATP, 0.1 μCi [g-^32P]ATP). After the reaction was performed at 30° C. for 60 minutes, the reaction was stopped by adding 50 μL 20% TCA solution. After the reaction solution was allowed to stand at 0° C. for 20 minutes, an acid insoluble fraction was transferred to GF/C filter (Packard Japan) using Cell Harvester (Packard Japan) and washed with 250 mM H3PO4. After drying at 45° C. for 60 minutes, 40 μL Microscint 0 (Packard Japan) was added and the radioactivity was measured with a TopCount (Packard Japan). The concentration (IC50 value) of the test compound necessary for inhibiting uptake of ^32P into an acid insoluble fraction by 50% was calculated with PRISM 2.01 (Graphpad Software).
# [2] = tested on: TNF-α production in THP-1 cells; test: Measurement of inhibiting activity of TNF-α production in LPS-stimulated THP-1 cells (ELISA), Reference Example F3; assay type: cell-based; settings: Homo sapiens, LPS 5 μg/mL, 4 hours, read-out: IC50 (concentration necessary for inhibiting TNF-α production by 50%)
# Method: (§1) Measurement of inhibiting activity of TNF-α production
# After THP-1 cells which had been cultured in PRMI 1640 medium (manufactured by Life Technologies, Inc.) containing 1% non-activated bovine fetal serum (manufactured by Life Technologies, Inc., U.S.A.) and 10 mM HEPES (pH 7.5) seeded on a 96-well plate to 1×10^5 cells/well, 1 μL test compound dissolved in DMSO was added to there. After incubation at 37° C. for 1 hour in a CO2 incubator, LPS (Wako Pure Chemicals) was added to the final concentration 5 μg/mL. After cultured at 37° C. for 4 hours in a CO2 incubator, the supernatant was obtained by centrifugation. The concentration of TNF-α in the supernatant was measured with ELISA (R&D System, Quantikine Kit). The concentration (IC50 value) necessary for inhibiting TNF-α production by 50% was calculated by PRIMS 2.01 (Graphpad Software).
# [3] = tested on: TNF-α production in THP-1 cells; test: Measurement of inhibiting activity of TNF-α production in LPS-stimulated THP-1 cells (ELISA), Experimental Example C2; assay type: cell-based; settings: Homo sapiens, concentration inhibiting TNF-α production by 50%, LPS 5 μg/mL, 4 hour, Table 46
# Method: as §1
# After THP-1 cells which had been cultured on PRMI 1640 medium (manufactured by Life Technologies, Inc.) containing 1% inactivated bovine fetal serum (manufactured by Life Technologies, Inc., U.S.A.) and 10 mM HEPES (pH 7.5) seeded on a 96-well plate to 1×10^5 cells/well, 1 μL test compound dissolved in DMSO was added. After incubation at 37° C. for 1 hour in a CO2 incubator, LPS (Wako Pure Chemicals) was added to the final concentration 5 μg/mL. After cultured at 37° C. for 4 hour in a CO2 incubator, the supernatant was obtained by centrifugation. The concentration of TNF-α in the supernatant was measured by ELISA (R&D Systems, Quantikine Kit). The concentration (IC50 value) of the test compound necessary for inhibiting TNF-α production by 50% was calculated using PRIMS 2.01 (Graphpad Software).
SMILES,melting point,IC50 [1],other results
"COc1ccc(-c2nc(N)sc2-c2cccnc2)cc1 [Reference Example A 8, [4-(4-methoxyphenyl)-5-(3-pyridyl)-1,3-thiazol-2-yl]amine]",265 to 266 °C,–,–
Cc1cc(C)cc(-c2nc(N)sc2-c2ccnc(NC(=O)c3ccccc3)c2)c1 [compound 5],–,–,IC50 [2]: 20 nM
COc1ccc(-c2nc(N)sc2-c2cccnc2)cc1.Cl,145 to 150 °C,–,–
"CNc1nc(-c2ccc(OC)cc2)c(-c2cccnc2)s1 [Reference Example A 9, N-methyl [4-(4-methoxyphenyl)-5-(3-pyridyl)-1,3-thiazol-2-yl]amine]",158 to 159 °C,–,–
"Cc1cccc(-c2nc(-c3ccc(S(C)(=O)=O)cc3)sc2-c2ccnc(S(=O)(=O)c3ccccc3)c2)c1 [Reference Example D 28, 4-(3-methylphenyl)-2-(4-methylsulfonylphenyl)-5-(2-phenylsulfonyl-4-pyridyl)-1,3-thiazole]",90 to 91 °C,–,–
"Cc1cccc(-c2nc(N)sc2-c2ccncc2)c1 [23-60, [4-(3-methylphenyl)-5-(4-pyridyl)-1,3-thiazol-2-yl]amine]",–,–,IC50 [3]: 46 nM

# Second part, led by results:
melting point,IC50 [1],SMILES,other results
–,26 nM,"CNc1nc(-c2ccc(Cl)cc2)c(-c2ccncc2)s1 [13-70, N-methyl [4-(4-chlorophenyl)-5-(4-pyridyl)-1,3-thiazol-2-yl]amine]",–
–,81 nM,"Nc1nc(-c2ccccc2)c(-c2ccncc2)s1 [13-15, [4-phenyl-5-(4-pyridyl)-1,3-thiazol-2-yl]amine]",–
–,60 nM,"CNc1nc(-c2ccc(OC)cc2)c(-c2ccncc2)s1 [13-16, N-methyl [4-(4-methoxyphenyl)-5-(4-pyridyl)-1,3-thiazol-2-yl]amine]",–
135 to 137 °C,–,"Fc1ccc(-c2nc(-c3ccccc3)sc2-c2ccncc2)cc1 [44-1, 4-(4-fluorophenyl)-2-phenyl-5-(4-pyridyl)-1,3-thiazole]",–
–,86 nM,"COc1ccc(-c2nc(N)sc2-c2ccncc2)cc1 [13-14, [4-(4-methoxyphenyl)-5-(4-pyridyl)-1,3-thiazol-2-yl]amine]",–
